Laboratory results: ChEMBL document CHEMBL4020783, “Cytotoxic pterosins from Pteris multifida roots against HCT116 human colon cancer cells” (Bioorg Med Chem Lett, 2017)
The source made the active and inactive calls. The calls are words filed in the database; no cut-off is given here.

What was measured:
HCT-116 [1] = assay: Cytotoxicity against human HCT116 cells assessed as reduction in cell viability after 48 hrs by MTT assay; assay type: functional, cell-based; conditions: HCT-116, 48 h
HCT-116 [2] = assay: Induction of apoptosis in human HCT116 cells assessed as increase in caspase-9 protein expression after 48 hrs by Western blot analysis; assay type: functional, cell-based
HCT-116 [3] = assay: Induction of apoptosis in human HCT116 cells assessed as increase in cleaved caspase-9 protein expression after 48 hrs by Western blot analysis; assay type: functional, cell-based
HCT-116 [4] = assay: Induction of apoptosis in human HCT116 cells assessed as early apoptotic cells at 10 uM after 48 hrs by Annexin-V/propidium iodide staining-based flow cytometric analysis (reference value: 4.2%); assay type: functional
HCT-116 [5] = assay: Induction of apoptosis in human HCT116 cells assessed as late apoptotic cells at 10 uM after 48 hrs by Annexin-V/propidium iodide staining-based flow cytometric analysis (reference value: 9.3%); assay type: functional
HCT-116 [6] = assay: Induction of apoptosis in human HCT116 cells assessed as early apoptotic cells at 50 uM after 48 hrs by Annexin-V/propidium iodide staining-based flow cytometric analysis (reference value: 4.2%); assay type: functional
HCT-116 [7] = assay: Induction of apoptosis in human HCT116 cells assessed as late apoptotic cells at 50 uM after 48 hrs by Annexin-V/propidium iodide staining-based flow cytometric analysis (reference value: 9.3%); assay type: functional
HCT-116 [8] = assay: Induction of morphological changes in human HCT116 cells assessed as cell rounding and shrinkage; assay type: functional, cell-based

| SMILES | IC50 (HCT-116 [1]) | other results |
| --- | --- | --- |
| Cc1cc2c(c(C)c1CCO)C(=O)C(C)(C)[C@@H]2O | 184 µM | – |
| Cc1cc2c(c(CO)c1CCO)C(=O)C(C)(C)[C@@H]2O | 120 µM | – |
| CO[C@@H]1c2cc(C)c(CCO)c(C)c2C(=O)[C@H]1C | 79.4 µM | – |
| Cc1cc2c(c(C)c1CCO)C(=O)[C@@H](C)[C@@H]2O[C@@H]1O[C@H](COC(=O)/C=C/c2ccc(O)cc2)[C@@H](O)[C@H](O)[C@H]1O | 17.2 µM | – |
| Cc1cc2c(c(C)c1CCO)C(=O)[C@@H](C)[C@@H]2O[C@@H]1O[C@H](CO)[C@@H](OC(=O)/C=C/c2ccc(O)c(O)c2)[C@H](O)[C@H]1O | 8 µM | Activity (HCT-116 [2]): Dose-dependent effect; Activity (HCT-116 [3]): Dose-dependent effect; Activity (HCT-116 [4]): 6.2%; Activity (HCT-116 [5]): 20.9%; Activity (HCT-116 [6]): 17.1%; Activity (HCT-116 [7]): 31.6%; Activity (HCT-116 [8]): Active |
| Cc1cc2c(c(C)c1CCO)C(=O)[C@@H](C)[C@@H]2O | 72.9 µM | – |
| Cc1cc2c(c(CO)c1CCO[C@@H]1O[C@H](CO)[C@@H](O)[C@H](O)[C@H]1O)C(=O)C(C)(C)[C@@H]2O | 81.2 µM | – |
| Cc1cc2c(c(C)c1CCO)C(=O)[C@](C)(CO)[C@@H]2O | 106 µM | – |
| Cc1cc2c(c(C)c1CCO)C(=O)[C@H](C)C2 | 50.1 µM | – |
| O=c1[nH]cc(F)c(=O)[nH]1 [FLUOROURACIL] | 41.9 µM | – |
| Cc1cc2c(c(C)c1CCO[C@@H]1O[C@H](CO)[C@@H](O)[C@H](O)[C@H]1O)C(=O)[C@H](C)C2 | 80.7 µM | – |
| Cc1cc2c(c(C)c1CCO)C(=O)[C@H](C)[C@@H]2O | 253 µM | – |
| Cc1cc2c(c(C)c1CCO)C(=O)[C@@H](C)[C@@H]2O[C@@H]1O[C@H](CO)[C@@H](O)[C@H](O)[C@H]1O | 32.9 µM | – |
